From PubChem BioAssay AID2060493 (Molecular Pharmacology Branch, DTP, NCI, 2025)
pIC50: −log10 of the molar value.

Test system: 616215-338-R-J1-PDC tumor spheroids, viability
Test: Anticancer human tumor 616215-338-R-J1-PDC patient-derived colon adenocarcinoma cell line growth inhibition [GQUAD]
Details: spheroids with HUVEC and MSC; for pIC50: curve of first compound; for viability, T/C: stronger effect = lower value
Method in brief: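 Viability of tumor cells grown as complex spheroids with endothelial and stromal cells, exposed to drug combinations. Top concentration at or near clinical Cmax (else 10 microM), diluted in half-log increments.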

[1] = second compound 0.0316 µM, first compound 0.0316 µM
[2] = second compound 0.0316 µM, first compound 0.1 µM
[3] = second compound 0.0316 µM, first compound 0.316 µM
[4] = second compound 0.0316 µM, first compound 1 µM
[5] = second compound 0.0316 µM, first compound 3.16 µM
[6] = second compound 0.0316 µM, first compound 10 µM
[7] = second compound 0.1 µM, first compound 0.0316 µM
[8] = second compound 0.1 µM, first compound 0.1 µM
[9] = second compound 0.1 µM, first compound 0.316 µM
[10] = second compound 0.1 µM, first compound 1 µM
[11] = second compound 0.1 µM, first compound 3.16 µM
[12] = second compound 0.1 µM, first compound 10 µM
[13] = second compound 0.316 µM, first compound 0.0316 µM
[14] = second compound 0.316 µM, first compound 0.1 µM
[15] = second compound 0.316 µM, first compound 0.316 µM
[16] = second compound 0.316 µM, first compound 1 µM
[17] = second compound 0.316 µM, first compound 3.16 µM
[18] = second compound 0.316 µM, first compound 10 µM
[19] = second compound 1 µM, first compound 0.0316 µM
[20] = second compound 1 µM, first compound 0.1 µM
[21] = second compound 1 µM, first compound 0.316 µM
[22] = second compound 1 µM, first compound 1 µM
[23] = second compound 1 µM, first compound 3.16 µM
[24] = second compound 1 µM, first compound 10 µM
[25] = second compound 3.16 µM, first compound 0.0316 µM
[26] = second compound 3.16 µM, first compound 0.1 µM
[27] = second compound 3.16 µM, first compound 0.316 µM
[28] = second compound 3.16 µM, first compound 1 µM
[29] = second compound 3.16 µM, first compound 3.16 µM
[30] = second compound 3.16 µM, first compound 10 µM
[31] = second compound 10 µM, first compound 0.0316 µM
[32] = second compound 10 µM, first compound 0.1 µM
[33] = second compound 10 µM, first compound 0.316 µM
[34] = second compound 10 µM, first compound 1 µM
[35] = second compound 10 µM, first compound 3.16 µM
[36] = second compound 10 µM, first compound 10 µM
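Also: spheroids exposed to agents for 7 days before readout.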
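For viability, T/C in this document: percent viability relative to DMSO vehicle control wells taken as 100%.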

Question: `COc1cc(C2c3cc4c(cc3C(OC3OC5COC(C)OC5C(O)C3O)C3COC(=O)C23)OCO4)cc(OC)c1O` (stereo unspecified) + Cc1cnc(CNC(=O)c2c(=O)c3ccc(N4CCCN(C)CC4)nc3n3c2sc2ccccc23)cn1 was tested. Which pIC50 (second compound 0.0316 µM) did it give?
Answer: 6.32

Question: And the pIC50 (second compound 0.1 µM)?
Answer: 6.34

Question: And the pIC50 (second compound 0.316 µM)?
Answer: > 7.50

Question: And the pIC50 (second compound 1 µM)?
Answer: > 7.50

Question: What about the pIC50 (second compound 3.16 µM) of the same compound?
Answer: > 7.50

Question: What about the pIC50 (second compound 10 µM) of the same compound?
Answer: > 7.50

Question: And the viability, T/C [1]?
Answer: 104%

Question: And the viability, T/C [2]?
Answer: 98.3%

Question: What about the viability, T/C [3] of the same compound?
Answer: 54.3%

Question: And the viability, T/C [4]?
Answer: 44.2%

Question: What about the viability, T/C [5] of the same compound?
Answer: 57.3%

Question: And the viability, T/C [6]?
Answer: 23.9%

Question: What about the viability, T/C [7] of the same compound?
Answer: 65.7%

Question: And the viability, T/C [8]?
Answer: 61%

Question: What about the viability, T/C [9] of the same compound?
Answer: 55.8%

Question: And the viability, T/C [10]?
Answer: 38.8%

Question: What about the viability, T/C [11] of the same compound?
Answer: 32.2%

Question: And the viability, T/C [12]?
Answer: 30.6%

Question: What about the viability, T/C [13] of the same compound?
Answer: 39.5%

Question: What about the viability, T/C [14] of the same compound?
Answer: 46.2%

Question: And the viability, T/C [15]?
Answer: 29.3%

Question: What about the viability, T/C [16] of the same compound?
Answer: 36.3%

Question: And the viability, T/C [17]?
Answer: 30.6%

Question: What about the viability, T/C [18] of the same compound?
Answer: 17.7%

Question: And the viability, T/C [19]?
Answer: 32.3%

Question: And the viability, T/C [20]?
Answer: 32.8%

Question: What about the viability, T/C [21] of the same compound?
Answer: 33.8%

Question: And the viability, T/C [22]?
Answer: 34.3%

Question: What about the viability, T/C [23] of the same compound?
Answer: 23.3%

Question: What about the viability, T/C [24] of the same compound?
Answer: 18.4%

Question: And the viability, T/C [25]?
Answer: 34.5%

Question: What about the viability, T/C [26] of the same compound?
Answer: 23.7%

Question: And the viability, T/C [27]?
Answer: 28.3%

Question: And the viability, T/C [28]?
Answer: 27%

Question: And the viability, T/C [29]?
Answer: 28.2%

Question: And the viability, T/C [30]?
Answer: 24.3%

Question: What about the viability, T/C [31] of the same compound?
Answer: 28.2%

Question: And the viability, T/C [32]?
Answer: 29.7%

Question: What about the viability, T/C [33] of the same compound?
Answer: 26.6%

Question: And the viability, T/C [34]?
Answer: 36.3%

Question: And the viability, T/C [35]?
Answer: 22.3%

Question: And the viability, T/C [36]?
Answer: 23.8%

Question: What does the source list for `O=C(c1cc(Cc2n[nH]c(=O)c3ccccc23)ccc1F)N1CCN(C(=O)C2CC2)CC1` + Cc1[nH]c2ccc(F)cc2c1-c1nc2c3cccnc3c3ncccc3c2[nH]1?
Answer: pIC50 (second compound 0.0316 µM): < 5.00; pIC50 (second compound 0.1 µM): < 5.00; pIC50 (second compound 0.316 µM): < 5.00; pIC50 (second compound 1 µM): < 5.00; pIC50 (second compound 3.16 µM): < 5.00; pIC50 (second compound 10 µM): < 5.00; viability, T/C [1]: 99.5%; viability, T/C [2]: 97%; viability, T/C [3]: 107%; viability, T/C [4]: 101%; viability, T/C [5]: 98.6%; viability, T/C [6]: 74.2%; viability, T/C [7]: 102%; viability, T/C [8]: 100%; viability, T/C [9]: 93.8%; viability, T/C [10]: 102%; viability, T/C [11]: 105%; viability, T/C [12]: 72.3%; viability, T/C [13]: 93.9%; viability, T/C [14]: 105%; viability, T/C [15]: 98.9%; viability, T/C [16]: 100%; viability, T/C [17]: 104%; viability, T/C [18]: 73.7%; viability, T/C [19]: 98.8%; viability, T/C [20]: 95.1%; viability, T/C [21]: 104%; viability, T/C [22]: 107%; viability, T/C [23]: 85.9%; viability, T/C [24]: 53.4%; viability, T/C [25]: 99.5%; viability, T/C [26]: 105%; viability, T/C [27]: 95%; viability, T/C [28]: 96.8%; viability, T/C [29]: 110%; viability, T/C [30]: 67.2%; viability, T/C [31]: 96.5%; viability, T/C [32]: 87.6%; viability, T/C [33]: 98.2%; viability, T/C [34]: 84.3%; viability, T/C [35]: 91.3%; viability, T/C [36]: 52%

Question: How did the pIC50 (second compound 0.0316 µM) turn out when `C#Cc1c(F)ccc2cc(O)cc(-c3ncc4c(N5CC6CCC(C5)N6)nc(OCC56CCCN5CC(F)C6)nc4c3F)c12` (stereo unspecified) + Cc1[nH]c2ccc(F)cc2c1-c1nc2c3cccnc3c3ncccc3c2[nH]1 was run?
Answer: < 5.00

Question: And the pIC50 (second compound 0.1 µM)?
Answer: < 5.00

Question: What about the pIC50 (second compound 0.316 µM) of the same compound?
Answer: < 5.00

Question: And the pIC50 (second compound 1 µM)?
Answer: < 5.00

Question: What about the pIC50 (second compound 3.16 µM) of the same compound?
Answer: 5.09

Question: And the pIC50 (second compound 10 µM)?
Answer: 5.22

Question: And the viability, T/C [1]?
Answer: 104%

Question: What about the viability, T/C [2] of the same compound?
Answer: 109%

Question: What about the viability, T/C [3] of the same compound?
Answer: 103%

Question: What about the viability, T/C [4] of the same compound?
Answer: 111%

Question: What about the viability, T/C [5] of the same compound?
Answer: 97.4%

Question: And the viability, T/C [6]?
Answer: 73.3%

Question: And the viability, T/C [7]?
Answer: 107%

Question: What about the viability, T/C [8] of the same compound?
Answer: 111%

Question: And the viability, T/C [9]?
Answer: 126%

Question: And the viability, T/C [10]?
Answer: 113%

Question: What about the viability, T/C [11] of the same compound?
Answer: 96%

Question: And the viability, T/C [12]?
Answer: 78.4%

Question: What about the viability, T/C [13] of the same compound?
Answer: 113%

Question: What about the viability, T/C [14] of the same compound?
Answer: 96.9%

Question: And the viability, T/C [15]?
Answer: 124%

Question: And the viability, T/C [16]?
Answer: 116%

Question: What about the viability, T/C [17] of the same compound?
Answer: 106%

Question: And the viability, T/C [18]?
Answer: 56.9%

Question: And the viability, T/C [19]?
Answer: 105%

Question: What about the viability, T/C [20] of the same compound?
Answer: 99.9%

Question: And the viability, T/C [21]?
Answer: 97.9%

Question: What about the viability, T/C [22] of the same compound?
Answer: 108%

Question: And the viability, T/C [23]?
Answer: 83.8%

Question: What about the viability, T/C [24] of the same compound?
Answer: 64.4%

Question: And the viability, T/C [25]?
Answer: 102%

Question: And the viability, T/C [26]?
Answer: 106%

Question: What about the viability, T/C [27] of the same compound?
Answer: 116%

Question: And the viability, T/C [28]?
Answer: 94.1%

Question: And the viability, T/C [29]?
Answer: 82.6%

Question: And the viability, T/C [30]?
Answer: 42.9%

Question: What about the viability, T/C [31] of the same compound?
Answer: 97.2%

Question: What about the viability, T/C [32] of the same compound?
Answer: 101%

Question: What about the viability, T/C [33] of the same compound?
Answer: 110%

Question: And the viability, T/C [34]?
Answer: 82.1%

Question: What about the viability, T/C [35] of the same compound?
Answer: 60.8%

Question: And the viability, T/C [36]?
Answer: 42.4%
